pIC50: −log10 of the molar value. Read-outs that look alike come from different tables or passages of the source.
Assays:
in vitro [1] = conditions: rat, microsomes, pH 7.4
Protocol: (§3) The assessment of metabolic stability of testing compounds was performed using human, mouse, rat, dog and monkey liver microsomes (20 mg protein/ml). Each reaction mixture contained 42.5 μL of 0.1 M potassium phosphate buffer pH 7.4, containing respective LM protein (final concentration 0.5 mg/ml). 2.5 μL of the compound stock solution was added in it (1 μM final concentration). The reaction was initiated by the addition of 5 μL NADPH solution (final Concentration 1 mM). At different time points (0, 5, 15, and 30 minutes), samples were quenched with 200 μL of cold acetonitrile containing ISTD Propranolol. Samples were centrifuged at 3500 rpm for 20 mM at 4° C. Supernatant was subjected to LC-MS/MS analysis for quantification. Verapamil was used as a positive control.

[2] = human, microsomes, 0.5 h, 1 μM, pH 7.4
Protocol: as §3

[3] = mouse, microsomes, 0.5 h, 1 μM, pH 7.4
Protocol: as §3

in vitro [4] = conditions: human, microsomes, pH 7.4
Protocol: as §3

[5] = rat, microsomes, 0.5 h, 1 μM, pH 7.4
Protocol: as §3

[6] = molecular target: aryl hydrocarbon receptor (AhR) (Mus musculus (Mouse), UniProt P30561); assay: AhR ligand screening: AhRE-luciferase reporter in transfected Hepa1 cells; format: cell-based; conditions: for Fold @ 1 nM: fold change of luciferase expression at 1 nM test compound relative to vehicle (0.1% DMSO); for Fold @ 100 nM: fold change of luciferase expression at 100 nM test compound relative to vehicle (0.1% DMSO); for Fold @ 10 uM: fold change of luciferase expression at 10 uM test compound relative to vehicle (0.1% DMSO); for Fold relative to benchmark @ 100 nM: luciferase expression at 100 nM test compound relative to 100 nM benchmark compound 11-cl-BBQ
Outline: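 Values are fold luciferase induction relative to vehicle (0.1% DMSO), read by luminometry of lysates from Hepa1 cells carrying an AhRE-driven luciferase reporter. Cells were seeded at 1×10^4 per well, grown overnight and treated with compound before lysis.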

in vitro [7] = conditions: mouse, microsomes, pH 7.4
Protocol: as §3

CYP-2B6 = CYP-2B6 (Homo sapiens (Human), UniProt P20813); assay: CYP panel profile: P450 inhibition, CYP-2B6; format: in vitro ADME; conditions: human liver microsomes
Protocol: (§1) 5. CYP Panel Profile: P450 Inhibition
(§2) From 10 mM stock solutions of test compounds, a dilution plate was prepared diluting serially starting from 5 mM up to 2 μM in Acetonitrile/DMSO or Methanol/DMSO Human liver Microsomes were added at required concentration as per specific CYP isoform in a deep well assay plate (1A2, 2C9, 2D6, 2B6, 2C8, 2C19, and 3A4). Compounds were spiked in all wells from dilution plate at final concentrations starting from 50 μM up to 0.02 μM, except for positive and negative control. Specific substrate were added to all wells and reactions were pre-incubated for 10 min. To start reactions, NADPH was added to all wells at 1 mM final concentration. Assay plate was mixed by vortexing and incubated at 37° C. for […] for 3A4.20 min for (1A2, 2C9, 2B6, 2C8, 2D6) and […] for 2C19. A quencher with chilled acetonitrile suitable internal standard was added. Samples were centrifuged and supernatants were collected and subjected to LC-MS/MS analysis for determination.

CYP-2C8 = CYP-2C8 (Homo sapiens (Human), UniProt P10632); assay: CYP panel profile: P450 inhibition, CYP-2C8; format: in vitro ADME; conditions: human liver microsomes
Protocol: as §1, §2

[8] = Liver microsomal stability, mouse
[9] = In vivo PK study, intravenous and oral administration in male mice; parameters: species or system mouse; conditions: plasma; for C0: read-out: C0_Cmax
Protocol: In Vivo PK Study Pharmacokinetics of Exemplary Compounds 362 and 893 Following an Intravenous and Oral Administration in Male C57BL/6J Mice.
Male C57BL/6J mice, approximately 8-10 weeks old, were obtained from the vivarium of Fundación Ciencia & Vida Chile (Santiago, Chile). Dosing solution of Compound 362 for PO administration was formulated in a vehicle containing 40% DMSO, 20% Kolliphor EL, 40% Propylene Glycol at 0.8 mg/mL. Dosing solution of Compound 362 for IV administration was formulated in a vehicle containing 30% DMSO, 20% Kolliphor EL, 50% PBS at […].
Male […] mice, approximately 8-11 weeks old, 22-27 grams were obtained from the vivarium Fundación Ciencia & Vida Chile (Santiago, Chile). Animals were acclimated for a minimum period of 4 days upon arrival at the testing facility. Animals were weighed, identified by marking the tail with numbers using a non-toxic permanent marker and designated into the following treatment groups on the day of dosing:
Group 1 animals received an IV administration via caudal vein of 2 mg/kg PRXS0362 dosing solution.
Group 2 animals received a PO administration via feeding tubes (20 gauge) of 8 mg/kg PRXS0362 dosing solution.
Terminal whole blood was collected via cardiac puncture for group 1 at the following time points: 5, 10, 15, 30, 60, 120, 240, 360, and 480 minutes. Non-dosed mice were used to collect samples of zero time points. For the group 2 at the following time point: 15, 30, 60, 120, 240, 360, and 480 minutes.
Whole blood, approximately 300 μL per time point, was collected into microtainer tubes with EDTA (K2). Blood samples were centrifuged immediately at approximately 9,000 G at 4° C. for 5 minutes and plasma separated. Plasma samples were placed into individually labeled tubes and stored in a −80° C. freezer prior to LC/MS/MS analysis.
The whole brain was collected at each point only for both groups, for this the animals were euthanized with CO2, decapitated, the brain was extracted weighed, frozen in liquid nitrogen and stored at −80° C. prior to LC/MS/MS analysis.
Compound 893 was tested by the same protocol as above.

[10] = Liver microsomal stability, rat
Protocol: as §3

CYP-2C19 = CYP-2C19 (Homo sapiens (Human), UniProt P33261); assay: CYP panel profile: P450 inhibition, CYP-2C19; format: in vitro ADME; conditions: human liver microsomes
Protocol: as §1, §2

CYP-3A4 = CYP-3A4 (Homo sapiens (Human), UniProt P08684); assay: CYP panel profile: P450 inhibition, CYP-3A4; format: in vitro ADME; conditions: human liver microsomes
Protocol: as §1, §2

CYP-2D6 = CYP-2D6 (Homo sapiens (Human), UniProt P10635); assay: CYP panel profile: P450 inhibition, CYP-2D6; format: in vitro ADME; conditions: human liver microsomes
Protocol: as §1, §2

CYP-2C9 = CYP-2C9 (Homo sapiens (Human), UniProt P11712); assay: CYP panel profile: P450 inhibition, CYP-2C9; format: in vitro ADME; conditions: human liver microsomes
Protocol: as §1, §2

CYP-1A2 = CYP-1A2 (Homo sapiens (Human), UniProt P05177); assay: CYP panel profile: P450 inhibition, CYP-1A2; format: in vitro ADME; conditions: human liver microsomes; read-out: CYP-1A2 IC50
Protocol: as §1, §2

[11] = Liver microsomal stability, human
Protocol: as §3

T1D = conditions: murine model; cited from earlier work
GVHD = conditions: murine model; cited from earlier work
[12] = acute or chronic treatment of mice, therapeutic dose; cited from earlier work
[13] = mouse, liver microsomes, pH 7.4
[14] = human, liver microsomes, pH 7.4

Chain of aryl hydrocarbon receptor (AhR) (P30561 10-805): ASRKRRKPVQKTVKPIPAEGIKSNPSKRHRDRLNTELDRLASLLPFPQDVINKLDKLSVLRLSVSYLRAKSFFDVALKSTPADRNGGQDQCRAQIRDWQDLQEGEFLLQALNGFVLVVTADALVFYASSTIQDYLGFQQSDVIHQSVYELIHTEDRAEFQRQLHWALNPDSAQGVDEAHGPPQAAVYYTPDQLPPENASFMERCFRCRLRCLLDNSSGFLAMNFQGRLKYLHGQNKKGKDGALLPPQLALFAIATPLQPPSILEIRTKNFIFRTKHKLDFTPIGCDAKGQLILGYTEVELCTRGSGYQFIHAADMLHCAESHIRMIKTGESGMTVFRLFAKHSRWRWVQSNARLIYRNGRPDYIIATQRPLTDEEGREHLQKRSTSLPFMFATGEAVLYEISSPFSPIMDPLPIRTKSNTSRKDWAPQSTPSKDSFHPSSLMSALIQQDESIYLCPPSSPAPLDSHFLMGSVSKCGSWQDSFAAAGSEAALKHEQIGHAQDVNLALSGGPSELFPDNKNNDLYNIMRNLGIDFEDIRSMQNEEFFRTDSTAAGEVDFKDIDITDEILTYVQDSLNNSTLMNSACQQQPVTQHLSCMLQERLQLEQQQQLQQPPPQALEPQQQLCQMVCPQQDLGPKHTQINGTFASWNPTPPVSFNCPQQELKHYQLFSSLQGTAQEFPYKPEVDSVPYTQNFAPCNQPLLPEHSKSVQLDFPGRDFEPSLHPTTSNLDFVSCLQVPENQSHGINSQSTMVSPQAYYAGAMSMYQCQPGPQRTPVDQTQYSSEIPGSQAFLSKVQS
Chain of aryl hydrocarbon receptor (AhR) (P53762 whole entry partner): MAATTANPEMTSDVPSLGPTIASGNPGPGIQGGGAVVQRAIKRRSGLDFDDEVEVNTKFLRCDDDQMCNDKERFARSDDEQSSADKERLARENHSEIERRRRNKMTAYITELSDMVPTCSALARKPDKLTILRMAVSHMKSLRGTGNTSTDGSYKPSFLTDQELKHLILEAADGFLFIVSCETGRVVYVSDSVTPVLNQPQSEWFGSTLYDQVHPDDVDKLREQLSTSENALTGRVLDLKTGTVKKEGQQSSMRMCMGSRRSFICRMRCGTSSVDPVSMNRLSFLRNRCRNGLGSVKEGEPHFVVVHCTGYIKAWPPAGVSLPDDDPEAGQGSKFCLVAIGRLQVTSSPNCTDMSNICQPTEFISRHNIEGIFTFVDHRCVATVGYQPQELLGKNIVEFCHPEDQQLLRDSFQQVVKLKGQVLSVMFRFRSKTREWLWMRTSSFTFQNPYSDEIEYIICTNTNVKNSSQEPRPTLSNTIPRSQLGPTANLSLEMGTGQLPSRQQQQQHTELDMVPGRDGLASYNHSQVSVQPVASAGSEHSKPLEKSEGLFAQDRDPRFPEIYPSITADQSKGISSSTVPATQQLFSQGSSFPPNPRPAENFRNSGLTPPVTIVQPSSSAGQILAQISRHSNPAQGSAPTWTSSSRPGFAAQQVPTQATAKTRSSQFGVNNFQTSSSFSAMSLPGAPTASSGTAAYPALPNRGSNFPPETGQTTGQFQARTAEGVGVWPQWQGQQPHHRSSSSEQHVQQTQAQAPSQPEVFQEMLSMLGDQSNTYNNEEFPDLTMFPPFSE
Chain of CYP-2C19 (P33261 whole entry): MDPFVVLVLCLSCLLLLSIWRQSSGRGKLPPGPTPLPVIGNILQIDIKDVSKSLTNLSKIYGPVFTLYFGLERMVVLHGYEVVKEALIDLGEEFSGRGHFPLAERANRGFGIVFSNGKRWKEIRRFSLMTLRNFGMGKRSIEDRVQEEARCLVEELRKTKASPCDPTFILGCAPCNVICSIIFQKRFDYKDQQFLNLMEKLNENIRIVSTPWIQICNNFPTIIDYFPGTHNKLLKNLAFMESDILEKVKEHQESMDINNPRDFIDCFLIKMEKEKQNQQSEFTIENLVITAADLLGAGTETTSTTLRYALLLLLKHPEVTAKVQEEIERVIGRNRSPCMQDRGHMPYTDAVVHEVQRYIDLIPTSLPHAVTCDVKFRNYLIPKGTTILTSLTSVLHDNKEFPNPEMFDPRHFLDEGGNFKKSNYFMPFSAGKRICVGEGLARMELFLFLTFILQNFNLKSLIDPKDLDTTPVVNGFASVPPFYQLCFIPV
Chain of CYP-2C8 (P10632 whole entry): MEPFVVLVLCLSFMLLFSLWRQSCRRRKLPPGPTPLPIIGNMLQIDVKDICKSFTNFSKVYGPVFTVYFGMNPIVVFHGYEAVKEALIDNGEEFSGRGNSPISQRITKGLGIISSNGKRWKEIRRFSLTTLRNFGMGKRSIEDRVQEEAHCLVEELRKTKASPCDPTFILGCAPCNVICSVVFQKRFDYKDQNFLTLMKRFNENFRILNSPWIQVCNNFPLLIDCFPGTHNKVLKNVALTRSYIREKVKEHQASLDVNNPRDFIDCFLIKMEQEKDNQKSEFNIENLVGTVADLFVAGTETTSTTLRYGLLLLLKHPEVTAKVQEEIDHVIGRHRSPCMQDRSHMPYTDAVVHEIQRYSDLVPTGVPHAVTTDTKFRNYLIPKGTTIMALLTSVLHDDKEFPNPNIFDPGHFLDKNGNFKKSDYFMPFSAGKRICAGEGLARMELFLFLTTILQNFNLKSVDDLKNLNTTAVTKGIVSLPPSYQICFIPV
Chain of CYP-1A2 (P05177 whole entry): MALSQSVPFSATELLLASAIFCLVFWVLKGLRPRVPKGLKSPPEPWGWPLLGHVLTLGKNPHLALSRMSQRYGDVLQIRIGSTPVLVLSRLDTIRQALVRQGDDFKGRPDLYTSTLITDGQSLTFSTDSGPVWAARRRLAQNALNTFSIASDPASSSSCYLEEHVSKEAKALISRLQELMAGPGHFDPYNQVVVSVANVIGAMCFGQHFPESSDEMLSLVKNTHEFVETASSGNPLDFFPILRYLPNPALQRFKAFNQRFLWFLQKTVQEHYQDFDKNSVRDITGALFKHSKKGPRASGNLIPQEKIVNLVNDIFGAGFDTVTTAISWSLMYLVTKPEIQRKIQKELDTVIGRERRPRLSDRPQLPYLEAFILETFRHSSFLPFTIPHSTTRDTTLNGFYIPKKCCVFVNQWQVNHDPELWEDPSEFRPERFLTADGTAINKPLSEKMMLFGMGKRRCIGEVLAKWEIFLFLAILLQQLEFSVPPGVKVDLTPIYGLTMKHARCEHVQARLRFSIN
Chain of CYP-2D6 (P10635 whole entry): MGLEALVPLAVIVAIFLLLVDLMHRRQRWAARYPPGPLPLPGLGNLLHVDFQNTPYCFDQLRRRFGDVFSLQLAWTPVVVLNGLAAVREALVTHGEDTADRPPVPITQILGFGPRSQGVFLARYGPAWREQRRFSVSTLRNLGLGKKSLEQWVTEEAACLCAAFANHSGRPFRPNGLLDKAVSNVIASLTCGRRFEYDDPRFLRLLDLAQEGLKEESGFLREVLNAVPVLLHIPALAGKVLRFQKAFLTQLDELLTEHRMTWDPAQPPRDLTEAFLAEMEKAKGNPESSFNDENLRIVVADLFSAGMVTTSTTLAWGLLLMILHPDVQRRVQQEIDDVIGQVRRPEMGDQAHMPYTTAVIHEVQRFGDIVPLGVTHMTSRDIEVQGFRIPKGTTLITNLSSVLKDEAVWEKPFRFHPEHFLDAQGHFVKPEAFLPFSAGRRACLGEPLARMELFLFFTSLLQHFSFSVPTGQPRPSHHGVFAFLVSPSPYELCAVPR
Chain of CYP-2B6 (P20813 whole entry): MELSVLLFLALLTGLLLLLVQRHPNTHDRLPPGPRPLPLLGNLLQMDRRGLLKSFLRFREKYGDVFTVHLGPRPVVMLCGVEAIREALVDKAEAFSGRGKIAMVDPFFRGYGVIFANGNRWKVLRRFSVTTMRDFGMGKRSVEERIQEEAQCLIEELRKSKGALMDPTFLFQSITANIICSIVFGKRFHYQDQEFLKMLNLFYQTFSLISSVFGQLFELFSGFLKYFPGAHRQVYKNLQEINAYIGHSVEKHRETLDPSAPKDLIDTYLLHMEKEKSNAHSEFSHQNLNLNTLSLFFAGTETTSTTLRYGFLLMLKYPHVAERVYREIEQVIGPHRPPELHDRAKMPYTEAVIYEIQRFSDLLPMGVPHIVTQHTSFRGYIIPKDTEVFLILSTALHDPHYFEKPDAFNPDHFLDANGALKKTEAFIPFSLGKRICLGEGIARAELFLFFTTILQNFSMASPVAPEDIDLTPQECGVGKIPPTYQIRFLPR
Chain of CYP-2C9 (P11712 whole entry): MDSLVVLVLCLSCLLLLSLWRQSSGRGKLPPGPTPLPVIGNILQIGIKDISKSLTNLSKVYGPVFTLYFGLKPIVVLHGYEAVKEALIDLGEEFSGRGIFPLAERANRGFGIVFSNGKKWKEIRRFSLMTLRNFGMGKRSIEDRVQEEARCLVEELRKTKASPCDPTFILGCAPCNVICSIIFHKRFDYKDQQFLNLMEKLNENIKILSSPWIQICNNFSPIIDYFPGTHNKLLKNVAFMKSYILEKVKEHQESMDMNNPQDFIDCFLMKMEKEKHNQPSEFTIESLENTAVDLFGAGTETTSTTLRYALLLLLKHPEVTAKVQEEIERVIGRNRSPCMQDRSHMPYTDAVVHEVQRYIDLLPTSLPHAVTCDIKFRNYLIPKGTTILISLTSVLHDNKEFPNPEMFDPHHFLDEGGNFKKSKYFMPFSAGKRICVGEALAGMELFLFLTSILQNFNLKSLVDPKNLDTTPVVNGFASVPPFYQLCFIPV

O=C(c1cccc2ccccc12)c1c[nH]c2cc(Cl)c(Cl)cc12 [Compound 434]
half-life at 1 μM (in vitro [1]): 28 min
microsomal CLint at 1 μM (in vitro [1]): 49.6 µL/min/mg
Rem @ HLM × 30 min [2]: 63.4%
Rem @ MLM × 30 min [3]: 10.6%
half-life at 1 μM (in vitro [4]): 48.7 min
microsomal CLint at 1 μM (in vitro [4]): 28.5 µL/min/mg
Rem @ RLM × 30 min [5]: 41.6%
Fold @ 1 nM [6]: 1 fold
Fold @ 100 nM [6]: 1 fold
Fold @ 10 uM [6]: 9 fold
Fold relative to benchmark @ 100 nM [6]: 0.03 fold
half-life at 1 μM (in vitro [7]): 10.7 min
microsomal CLint at 1 μM (in vitro [7]): 129 µL/min/mg

Clc1ccc2[nH]c(-c3cccc4ccccc34)cc2c1 [Compound 893, 5-chloro-2-(naphthalen-1-yl)-1H-indole]
pIC50 (CYP-2B6): 5.10
pIC50 (CYP-2C8): 5.11
Rem @ MLM × 30 min ([8]; mouse liver microsomes, 30 min, 1 μM compound, 0.5 mg/ml protein): 16.7%
half-life at 1 μM [8, 13]: 12.2 min
microsomal CLint at 1 μM [8, 13]: 114 µL/min/mg
CL_CL/F ([9]; IV 2 mg/Kg): 4.218 L/[Kg*h]
Vd_Vd/F ([9]; IV 2 mg/Kg): 8.777 L/kg
thalf ([9]; IV 2 mg/Kg): 1.442 h
CL_CL/F ([9]; PO 8 mg/Kg): 5.739 L/[Kg*h]
Vd_Vd/F ([9]; PO 8 mg/Kg): 12.846 L/kg
thalf ([9]; PO 8 mg/Kg): 1.551 h
AUC(0-inf) ([9]; mouse, IV 2 mg/Kg): 474 ng·h/mL
AUC(0-t) ([9]; mouse, IV 2 mg/Kg): 451 ng·h/mL
MRT ([9]; mouse, IV 2 mg/Kg): 120 min
C0 ([9]; mouse, IV 2 mg/Kg): 174 ng/mL
bioavailability ([9]; mouse, PO 8 mg/Kg vs IV 2 mg/Kg): 73.5%
AUC(0-inf) ([9]; mouse, PO 8 mg/Kg): 1390 ng·h/mL
AUC(0-t) ([9]; mouse, PO 8 mg/Kg): 1330 ng·h/mL
MRT ([9]; mouse, PO 8 mg/Kg): 160 min
Tmax ([9]; mouse, PO 8 mg/Kg): 60 min
C0 ([9]; mouse, PO 8 mg/Kg): 398 ng/mL
Rem @ RLM × 30 min ([10]; rat liver microsomes, 30 min, 1 μM compound, 0.5 mg/ml protein): 51.7%
half-life at 1 μM ([10]; rat, liver microsomes, pH 7.4): 35.8 min
microsomal CLint at 1 μM ([10]; rat, liver microsomes, pH 7.4): 38.8 µL/min/mg
pIC50 (CYP-2C19): 5.54
pIC50 (CYP-3A4): 4.63
pIC50 (CYP-2D6): 4.50
Fold @ 1 nM [6]: 1 fold
Fold @ 100 nM [6]: 49 fold
Fold @ 10 uM [6]: 49 fold
Fold relative to benchmark @ 100 nM [6]: 0.91 fold
pIC50 (CYP-2C9): 5.14
pIC50 (CYP-1A2): 6.30
Rem @ HLM × 30 min ([11]; human liver microsomes, 30 min, 1 μM compound, 0.5 mg/ml protein): 19.6%
half-life at 1 μM [11, 14]: 14.1 min
microsomal CLint at 1 μM [11, 14]: 98.5 µL/min/mg

O=c1c2cccc3cccc(c32)c2nc3cc(Cl)ccc3n12 [Compound 11-Cl-BBQ, 11-chloro-7H-benzimidazo[2,1-a]benzo[de]-Iso-quinolin-7-one]
development of T1D (T1D): suppress the development of T1D
development of GVHD (GVHD): suppress the development of T1D and GVHD
overt toxicity [12]: no overt toxicity

O=C(c1ccc2ccccc2c1)c1c[nH]c2ccc(Cl)cc12 [Compound 885]
half-life at 1 μM (in vitro [1]): 30.7 min
microsomal CLint at 1 μM (in vitro [1]): 45.1 µL/min/mg
Rem @ HLM × 30 min [2]: 58.1%
Rem @ MLM × 30 min [3]: 45.1%
half-life at 1 μM (in vitro [4]): 36.8 min
microsomal CLint at 1 μM (in vitro [4]): 37.7 µL/min/mg
Rem @ RLM × 30 min [5]: 50.2%
Fold @ 1 nM [6]: 1 fold
Fold @ 100 nM [6]: 1 fold
Fold @ 10 uM [6]: 1 fold
Fold relative to benchmark @ 100 nM [6]: 0.02 fold
half-life at 1 μM (in vitro [7]): 27.5 min
microsomal CLint at 1 μM (in vitro [7]): 50.4 µL/min/mg
